# pIC50: −log10 of the molar value. Several values for one entry are separate records, joined by “and”; a condition that tells them apart may be missing. Equal entries are not always repeated.
# Experiments:
# [1] = molecular target: T1, Kir1 channels (Homo sapiens, UniProt P48048); settings: Jin & Lu, 1999; cited from earlier work
# T1 sequence (P48048 1-391): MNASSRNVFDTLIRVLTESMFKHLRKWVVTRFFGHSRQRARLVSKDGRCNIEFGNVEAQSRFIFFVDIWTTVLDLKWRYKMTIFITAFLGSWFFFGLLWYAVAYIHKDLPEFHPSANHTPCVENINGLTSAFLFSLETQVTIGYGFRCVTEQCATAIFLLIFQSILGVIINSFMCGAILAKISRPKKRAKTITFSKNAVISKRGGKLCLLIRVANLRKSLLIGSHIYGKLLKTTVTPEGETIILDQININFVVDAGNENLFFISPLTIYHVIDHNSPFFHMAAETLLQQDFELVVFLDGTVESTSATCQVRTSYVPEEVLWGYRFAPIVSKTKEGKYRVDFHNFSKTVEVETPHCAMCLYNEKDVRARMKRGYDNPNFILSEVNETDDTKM
# [2] = system: IKH; assay type: cell-based, canine
# Description: (§1) Adult mongrel dogs of either sex (weighing about 20-35 kg) were anaesthetized with pentobarbital (30 mg kg^−1 I.V.) and artificially ventilated with room air. Hearts and adjacent lung tissue were relatively quickly excised through a left lateral thoracotomy and immersed in oxygenated Tyrode solution (composition detailed hereinbelow) at room temperature. […] A left atrial (LA) preparation with the PVs intact was perfused via the left circumflex coronary artery, and subjected to either standard fine-tipped microelectrode recording of action potentials (APs) or cardiomyocyte isolation with collagenase-containing solutions, as previously described (Ehrlich et al. 2003). Six dogs were subjected to atrial tachycardia-induced remodeling induced by 1 week of atrial pacing at about 400 beats min^−1 after ablation of the AV node, as described in Li et al. 1999. Animal care and handling procedures followed the guidelines of the Canadian Council on Animal Care.
# (§2) To isolate LA and PV cardiomyocytes, the proximal circumflex artery was cannulated and the distal ends of PV myocardial sleeves (approximately 1-1.5 cm from the PV-LA junction) were marked with silk thread prior to subsequent enzyme perfusion with collagenase (100 U ml^−1, Worthington, type II), in order to facilitate localization of PV sleeves after enzymatic digestion. […] All comparisons were based on PV and LA cardiomyocytes isolated from each dog on each experimental day. After isolation, cells were stored at 4° C. and studied on the same day. For standard microelectrode experiments, intact tissue preparations including the LA and adjacent PVs were mounted in a chamber and perfused via the circumflex artery with oxygenated Krebs solution at 36±0.5° C. (see for example Kneller et al. 2002).
# Currents were recorded with the whole-cell patch-clamp technique at 36±0.5° C., as described in Yue et al. 1996. All junction potentials were zeroed prior to formation of gigaohm seals. […] Capacitance was assessed using 5 mV, 10 ms hyperpolarizing steps from a holding potential (HP) of −60 mV. […] Original recordings are shown in terms of current amplitude, but mean data are presented as current density (pA pF−1) to control for variability in cell size.
# (§3) Currents were recorded with hyperpolarizing and depolarizing pulses (generally 4 s duration) from a HP of −40 mV to selected test potentials (TPs). Recordings were repeated 3 times, and mean values obtained. For the determination of reversal potentials, tail currents were recorded after 1.6 s pulses to −120 mV followed by 3.2 s depolarizations to TPs between −110 and +20. All voltage protocols were delivered at 0.1 Hz.
# Tyrode solution contained (mM): NaCl 136, KCl 5.4, MgCl2 1, CaCl2 1, NaH2PO4 0.33, Hepes 5 and dextrose 10 (pH 7.35 with NaOH). The cell-storage solution contained (mM): KCl 20, KH2PO4 10, dextrose 10, mannitol 40, L-glutamic acid 70, β-OH-butyric acid 10, taurine 20, EGTA 10 and 0.1% bovine serum albumin (pH 7.3, KOH). Nifedipine (5 μM) was used to suppress L-type Ca^2+ current (ICa) in all experiments. 4-Aminopyridine (4-AP, 2 mM) was added to suppress transient outward current (Ito). […] Na+ current (INa) contamination was avoided by using a HP of −40 mV for recording of hyperpolarization-induced currents and by substitution of equimolar Tris-HCl for external NaCl for tail-current recordings.
# [3] = molecular target: IKs (Homo sapiens, UniProt P51787); settings: at concentrations of 8 to 30 nM; cited from earlier work
# [4] = molecular target: IKr (Homo sapiens, UniProt Q12809); settings: at concentrations of 8 to 30 nM; cited from earlier work
# [5] = system: instantaneous inward-rectifier current; experiment: Whole-cell patch-clamp of instantaneous inward-rectifier current in canine cardiomyocytes; assay type: cell-based; settings: 1 μM tertiapin-Q; not statistically significant
# Description: as §1
# as §2, with “For standard microelectrode experiments, intact tissue preparations including the LA and adjacent PVs were mounted in a chamber and perfused via the circumflex artery with oxygenated Krebs solution at 36±0.5° C. (see for example Kneller et al. 2002).” left out
# Currents were recorded with the whole-cell patch-clamp technique at 36±0.5° C., as described in Yue et al. 1996. […] Capacitance was assessed using 5 mV, 10 ms hyperpolarizing steps from a holding potential (HP) of −60 mV. […]
# as §3, with “Recordings were repeated 3 times, and mean values obtained.” left out, “All voltage protocols were delivered at 0.1 Hz.” left out
# [6] = system: IKH; experiment: Patch-clamp of TQ-sensitive IKH component in LA cardiomyocytes of control and AT dogs; assay type: cell-based, canine; settings: at −110 mV
# Description: Briefly, dogs were subjected to 7-13 days of AT at about 400 beats per minute (bpm). LA preparations were then coronary-perfused and studied intact in vitro or subjected to cardiomyocyte isolation. IKH was studied with patch clamp.
# Adult dogs were divided into control and AT groups. AT dogs were initially anesthetized with diazepam (0.25 mg/kg IV), ketamine (5.0 mg/kg IV), and halothane (1% to 2%) for transvenous insertion of right ventricular (RV) and right atrial (RA) unipolar pacing leads connected to ventricular and atrial pacemakers implanted in the neck. Pacing began 24 hours after pacemaker implantation. AV block was created by radiofrequency catheter ablation and the RV demand-pacemaker was programmed to 80 bpm. The RA was then tachypaced (400 bpm) for 7-13 days.
# On study days, dogs were anesthetized with pentobarbital (30 mg·kg^−1 I.V.) and artificially ventilated. Hearts and adjacent lung tissue were excised via a left thoracotomy and immersed in oxygenated Tyrode solution. […]
# For single cardiomyocytes, currents were recorded with whole-cell patch-clamp at 36±0.5° C. […] To control for cell-size variability, currents are expressed as densities (pA/pF). […]
# [7] = system: IK1; settings: at concentrations of 8 to 30 nM; cited from earlier work
# Sequence of IKr (Q12809 whole entry): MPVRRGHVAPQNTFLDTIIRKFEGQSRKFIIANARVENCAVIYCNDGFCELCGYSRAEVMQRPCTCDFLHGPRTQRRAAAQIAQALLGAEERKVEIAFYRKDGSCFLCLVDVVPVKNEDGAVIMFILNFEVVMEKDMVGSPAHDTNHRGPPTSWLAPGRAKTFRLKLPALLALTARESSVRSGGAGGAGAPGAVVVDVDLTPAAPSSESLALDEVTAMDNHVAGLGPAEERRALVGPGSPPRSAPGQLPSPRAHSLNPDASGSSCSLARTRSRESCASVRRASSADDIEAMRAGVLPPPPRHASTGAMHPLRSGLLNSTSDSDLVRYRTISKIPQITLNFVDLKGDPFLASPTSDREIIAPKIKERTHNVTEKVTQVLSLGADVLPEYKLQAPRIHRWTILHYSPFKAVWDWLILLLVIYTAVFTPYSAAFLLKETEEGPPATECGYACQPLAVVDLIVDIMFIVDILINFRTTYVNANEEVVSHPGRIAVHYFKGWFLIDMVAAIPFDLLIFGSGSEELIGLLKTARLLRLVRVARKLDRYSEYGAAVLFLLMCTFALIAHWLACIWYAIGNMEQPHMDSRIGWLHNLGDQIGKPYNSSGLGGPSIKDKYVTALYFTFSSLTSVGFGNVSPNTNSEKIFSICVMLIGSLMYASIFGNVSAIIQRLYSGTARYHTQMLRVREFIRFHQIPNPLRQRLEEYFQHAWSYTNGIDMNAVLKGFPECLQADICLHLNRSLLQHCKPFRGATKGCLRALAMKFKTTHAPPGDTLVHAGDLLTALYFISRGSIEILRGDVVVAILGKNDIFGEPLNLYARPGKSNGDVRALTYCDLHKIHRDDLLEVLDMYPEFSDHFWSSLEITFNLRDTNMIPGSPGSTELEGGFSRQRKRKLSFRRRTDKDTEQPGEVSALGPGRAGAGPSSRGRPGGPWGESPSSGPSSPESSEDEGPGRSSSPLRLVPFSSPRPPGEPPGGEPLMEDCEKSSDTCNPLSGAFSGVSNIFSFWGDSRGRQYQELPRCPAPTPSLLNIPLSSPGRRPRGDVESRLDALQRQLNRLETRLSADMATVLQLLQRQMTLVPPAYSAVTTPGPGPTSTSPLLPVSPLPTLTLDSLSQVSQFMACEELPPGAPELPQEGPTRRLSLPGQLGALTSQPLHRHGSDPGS
substance,measurement,setting,value
tertiapin-Q,pIC50,[1],8.70
same,effect on time-dependent IKH (in words),"[2]; 200 nM tertiapin-Q, PV cardiomyocyte",abolished
same,effect on time-dependent current (in words),"[2]; 1 μM tertiapin-Q, PV cardiomyocytes",eliminated
same,pIC50,"[2]; at −120 mV, PV cardiomyocytes, read-out: IC50 for time-dependent IKH",8.00 and ~8.00
same,mean end-pulse current,"[2]; at −120 mV, after 200 nM tertiapin-Q (before −2.84±0.89)",0.09±0.01 pA pF^−1
same,effect on IKs (in words),[3],no effect
same,effect on IKr (in words),[4],no effect
same,decrease of mean instantaneous current,[5],25%
same,100 nM TQ-sensitive component of IKH,[6]; AT dogs,−2.8±0.5 pA/pF
same,100 nM TQ-sensitive component of IKH,[6]; control dogs,−1.7±0.5 pA/pF
same,effect on IK1 (in words),[7],no effect

# From US20060094003A1, “Acetylcholine-dependent current as a novel ionic target for atrial fibrillation” (priority 2004, published 2006)
